Experiment [1] addresses Serine/threonine-protein kinase 24 (Homo sapiens) (UniProt Q9Y6E0). In words: Residual activity of MST3 at 10 uM by microplate scintillation counting.
In experiment [2] the target is Serine/threonine-protein kinase pim-1 (Homo sapiens) (UniProt P11309). The experiment in a line: Residual activity of PIM1 at 0.1 uM by microplate scintillation counting.
Experiment [3] deals with Casein kinase I isoform delta (Homo sapiens) (UniProt P48730). The experiment in a line: Residual activity of CK1delta at 10 uM by microplate scintillation counting.
Sequence of Casein kinase I isoform delta (Homo sapiens) (P48730 whole entry, looked up, canonical isoform): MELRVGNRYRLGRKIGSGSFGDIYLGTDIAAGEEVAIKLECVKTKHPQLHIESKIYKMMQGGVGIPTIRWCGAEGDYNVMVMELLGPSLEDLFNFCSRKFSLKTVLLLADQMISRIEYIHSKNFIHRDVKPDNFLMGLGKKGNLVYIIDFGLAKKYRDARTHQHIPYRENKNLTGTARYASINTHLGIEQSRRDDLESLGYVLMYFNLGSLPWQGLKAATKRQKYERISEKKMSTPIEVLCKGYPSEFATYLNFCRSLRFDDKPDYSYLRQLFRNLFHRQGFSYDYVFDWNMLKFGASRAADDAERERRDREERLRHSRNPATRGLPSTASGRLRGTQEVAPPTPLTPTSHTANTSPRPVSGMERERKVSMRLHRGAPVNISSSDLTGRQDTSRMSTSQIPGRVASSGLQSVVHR
In experiment [4] the target is T1, Tyrosine-protein kinase JAK3 (Homo sapiens) (UniProt P52333).
T1 sequence (whole entry): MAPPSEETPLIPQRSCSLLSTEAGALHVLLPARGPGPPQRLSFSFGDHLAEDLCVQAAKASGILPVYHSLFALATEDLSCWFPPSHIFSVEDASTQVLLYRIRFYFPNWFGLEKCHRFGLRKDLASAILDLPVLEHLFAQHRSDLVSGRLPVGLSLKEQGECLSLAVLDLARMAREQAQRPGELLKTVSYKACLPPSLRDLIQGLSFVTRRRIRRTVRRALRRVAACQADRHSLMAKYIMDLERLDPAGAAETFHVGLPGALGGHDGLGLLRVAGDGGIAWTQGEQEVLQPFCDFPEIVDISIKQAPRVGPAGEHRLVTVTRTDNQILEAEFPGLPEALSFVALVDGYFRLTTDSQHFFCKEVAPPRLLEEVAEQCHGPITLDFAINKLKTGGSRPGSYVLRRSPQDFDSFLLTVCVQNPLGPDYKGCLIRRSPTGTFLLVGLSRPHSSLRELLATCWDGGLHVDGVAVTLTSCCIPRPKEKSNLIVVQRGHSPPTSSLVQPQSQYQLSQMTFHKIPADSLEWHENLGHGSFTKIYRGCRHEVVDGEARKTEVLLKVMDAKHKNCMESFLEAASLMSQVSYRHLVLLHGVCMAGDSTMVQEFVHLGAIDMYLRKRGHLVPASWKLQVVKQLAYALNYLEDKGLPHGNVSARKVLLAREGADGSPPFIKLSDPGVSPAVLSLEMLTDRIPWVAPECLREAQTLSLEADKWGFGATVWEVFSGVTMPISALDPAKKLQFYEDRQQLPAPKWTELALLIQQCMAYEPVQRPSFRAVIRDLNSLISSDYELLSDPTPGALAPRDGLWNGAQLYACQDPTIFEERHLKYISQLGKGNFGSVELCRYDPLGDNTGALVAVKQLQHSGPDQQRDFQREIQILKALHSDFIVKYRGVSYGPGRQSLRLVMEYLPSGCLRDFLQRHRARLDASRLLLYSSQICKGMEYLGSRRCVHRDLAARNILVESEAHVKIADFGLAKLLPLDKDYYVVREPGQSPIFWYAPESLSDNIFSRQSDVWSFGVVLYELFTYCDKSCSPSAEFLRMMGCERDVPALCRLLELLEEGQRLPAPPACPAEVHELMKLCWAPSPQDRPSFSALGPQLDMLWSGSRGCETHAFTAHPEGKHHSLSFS
In words: Residual activity of JAK3 at 10 uM by microplate scintillation counting.

Experiment [5] deals with T2, Testis-specific serine/threonine-protein kinase 1 (Homo sapiens) (UniProt Q9BXA7).
T2 sequence (whole entry): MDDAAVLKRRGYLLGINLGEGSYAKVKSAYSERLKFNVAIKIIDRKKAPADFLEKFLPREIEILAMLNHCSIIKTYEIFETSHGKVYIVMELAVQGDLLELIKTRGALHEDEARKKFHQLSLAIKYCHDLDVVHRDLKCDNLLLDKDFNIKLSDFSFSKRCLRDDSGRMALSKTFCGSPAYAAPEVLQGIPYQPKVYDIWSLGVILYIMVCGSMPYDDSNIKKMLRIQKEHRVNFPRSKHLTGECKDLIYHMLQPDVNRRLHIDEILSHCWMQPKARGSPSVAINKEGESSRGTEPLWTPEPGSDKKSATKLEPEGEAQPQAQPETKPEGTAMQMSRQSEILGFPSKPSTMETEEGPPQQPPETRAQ
The experiment in a line: Residual activity of TSSK1 at 0.1 uM by microplate scintillation counting.

In experiment [6] the target is Serine/threonine-protein kinase Nek7 (Homo sapiens) (UniProt Q8TDX7). The experiment in a line: Residual activity of NEK7 at 10 uM by microplate scintillation counting.
Sequence of Serine/threonine-protein kinase Nek7 (Homo sapiens) (Q8TDX7 whole entry, looked up): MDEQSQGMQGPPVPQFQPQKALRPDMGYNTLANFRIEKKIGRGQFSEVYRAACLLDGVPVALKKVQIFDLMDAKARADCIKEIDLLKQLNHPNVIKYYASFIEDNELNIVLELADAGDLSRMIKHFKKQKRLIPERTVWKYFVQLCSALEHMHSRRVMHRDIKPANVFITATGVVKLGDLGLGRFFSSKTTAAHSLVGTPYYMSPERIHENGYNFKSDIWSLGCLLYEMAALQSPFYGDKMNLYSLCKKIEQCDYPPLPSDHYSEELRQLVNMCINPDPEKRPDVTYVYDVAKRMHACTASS
Experiment [7] deals with Serine/threonine-protein kinase WNK3 (Homo sapiens) (UniProt Q9BYP7). In words: Residual activity of WNK3 at 0.1 uM by microplate scintillation counting.
Sequence of Serine/threonine-protein kinase WNK3 (Homo sapiens) (Q9BYP7 whole entry): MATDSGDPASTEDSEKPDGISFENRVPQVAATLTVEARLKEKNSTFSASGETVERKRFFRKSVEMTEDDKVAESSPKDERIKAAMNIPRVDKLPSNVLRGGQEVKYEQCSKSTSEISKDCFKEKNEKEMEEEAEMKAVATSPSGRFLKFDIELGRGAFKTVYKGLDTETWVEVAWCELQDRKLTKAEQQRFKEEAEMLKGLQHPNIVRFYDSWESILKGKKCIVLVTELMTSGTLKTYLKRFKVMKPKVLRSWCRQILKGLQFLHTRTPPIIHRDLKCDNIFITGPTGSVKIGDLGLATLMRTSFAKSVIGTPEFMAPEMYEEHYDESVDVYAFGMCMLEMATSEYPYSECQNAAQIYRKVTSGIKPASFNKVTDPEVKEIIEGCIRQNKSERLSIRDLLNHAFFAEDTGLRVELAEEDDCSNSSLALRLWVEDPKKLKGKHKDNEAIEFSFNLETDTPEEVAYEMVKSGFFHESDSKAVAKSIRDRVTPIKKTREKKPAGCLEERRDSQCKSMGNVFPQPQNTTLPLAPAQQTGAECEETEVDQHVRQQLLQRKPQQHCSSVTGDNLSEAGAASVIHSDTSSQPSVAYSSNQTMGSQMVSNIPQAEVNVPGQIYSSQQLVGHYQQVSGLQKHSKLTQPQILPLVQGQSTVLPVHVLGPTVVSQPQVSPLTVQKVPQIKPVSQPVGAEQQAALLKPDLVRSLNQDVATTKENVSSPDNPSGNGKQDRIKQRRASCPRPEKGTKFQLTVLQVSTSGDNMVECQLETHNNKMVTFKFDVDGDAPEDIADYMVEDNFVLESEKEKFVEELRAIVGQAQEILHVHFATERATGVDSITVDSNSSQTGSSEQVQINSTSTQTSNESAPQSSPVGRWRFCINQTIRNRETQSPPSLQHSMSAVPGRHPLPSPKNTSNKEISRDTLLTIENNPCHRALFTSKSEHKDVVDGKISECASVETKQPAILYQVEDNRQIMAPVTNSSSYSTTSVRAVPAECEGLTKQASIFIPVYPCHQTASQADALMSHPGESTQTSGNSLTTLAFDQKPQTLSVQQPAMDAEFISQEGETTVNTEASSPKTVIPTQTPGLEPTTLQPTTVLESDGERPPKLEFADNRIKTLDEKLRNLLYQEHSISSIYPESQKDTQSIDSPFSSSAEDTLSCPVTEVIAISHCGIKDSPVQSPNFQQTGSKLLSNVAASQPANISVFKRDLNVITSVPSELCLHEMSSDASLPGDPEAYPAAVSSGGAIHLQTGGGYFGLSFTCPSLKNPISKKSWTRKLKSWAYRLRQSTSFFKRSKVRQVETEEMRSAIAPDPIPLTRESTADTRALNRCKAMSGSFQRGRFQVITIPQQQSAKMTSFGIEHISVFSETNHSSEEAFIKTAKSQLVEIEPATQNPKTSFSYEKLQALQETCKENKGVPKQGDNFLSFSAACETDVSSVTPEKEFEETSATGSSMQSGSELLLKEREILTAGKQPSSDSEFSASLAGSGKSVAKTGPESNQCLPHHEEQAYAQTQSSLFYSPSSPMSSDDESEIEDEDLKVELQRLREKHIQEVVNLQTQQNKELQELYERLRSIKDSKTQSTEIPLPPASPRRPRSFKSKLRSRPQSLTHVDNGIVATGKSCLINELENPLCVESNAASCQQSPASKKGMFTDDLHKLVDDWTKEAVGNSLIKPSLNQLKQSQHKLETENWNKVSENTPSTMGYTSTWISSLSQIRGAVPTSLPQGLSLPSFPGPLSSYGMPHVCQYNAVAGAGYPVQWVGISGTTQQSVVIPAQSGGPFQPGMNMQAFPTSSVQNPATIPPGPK
Experiment [8] has as its target T3, Inhibitor of nuclear factor kappa-B kinase subunit beta (Homo sapiens) (UniProt O14920).
T3 sequence (whole entry): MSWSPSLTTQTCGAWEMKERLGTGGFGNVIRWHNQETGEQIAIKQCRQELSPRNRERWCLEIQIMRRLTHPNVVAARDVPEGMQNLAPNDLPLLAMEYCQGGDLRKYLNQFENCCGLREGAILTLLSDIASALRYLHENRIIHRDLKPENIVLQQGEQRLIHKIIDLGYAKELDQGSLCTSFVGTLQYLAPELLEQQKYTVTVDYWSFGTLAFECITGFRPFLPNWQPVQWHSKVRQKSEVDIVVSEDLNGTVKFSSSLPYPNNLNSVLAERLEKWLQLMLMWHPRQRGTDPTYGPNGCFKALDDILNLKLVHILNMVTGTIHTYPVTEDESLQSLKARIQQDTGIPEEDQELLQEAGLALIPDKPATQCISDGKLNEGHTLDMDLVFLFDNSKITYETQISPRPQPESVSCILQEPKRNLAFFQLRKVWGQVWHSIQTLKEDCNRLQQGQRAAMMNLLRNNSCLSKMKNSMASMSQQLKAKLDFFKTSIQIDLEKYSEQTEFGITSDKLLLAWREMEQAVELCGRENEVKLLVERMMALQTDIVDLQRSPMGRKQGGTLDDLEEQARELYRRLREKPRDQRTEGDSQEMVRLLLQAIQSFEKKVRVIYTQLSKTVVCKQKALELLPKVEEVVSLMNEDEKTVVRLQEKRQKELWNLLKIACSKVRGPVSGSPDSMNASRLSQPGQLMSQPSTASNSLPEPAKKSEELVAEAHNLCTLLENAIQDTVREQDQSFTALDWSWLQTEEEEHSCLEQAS
In words: Residual activity of IKK-beta at 10 uM by microplate scintillation counting.

In experiment [9] the target is Tyrosine-protein kinase CSK (Homo sapiens) (UniProt P41240). The experiment in a line: Residual activity of CSK at 1 uM by microplate scintillation counting.
Sequence of Tyrosine-protein kinase CSK (Homo sapiens) (P41240 2-450 limits assumed): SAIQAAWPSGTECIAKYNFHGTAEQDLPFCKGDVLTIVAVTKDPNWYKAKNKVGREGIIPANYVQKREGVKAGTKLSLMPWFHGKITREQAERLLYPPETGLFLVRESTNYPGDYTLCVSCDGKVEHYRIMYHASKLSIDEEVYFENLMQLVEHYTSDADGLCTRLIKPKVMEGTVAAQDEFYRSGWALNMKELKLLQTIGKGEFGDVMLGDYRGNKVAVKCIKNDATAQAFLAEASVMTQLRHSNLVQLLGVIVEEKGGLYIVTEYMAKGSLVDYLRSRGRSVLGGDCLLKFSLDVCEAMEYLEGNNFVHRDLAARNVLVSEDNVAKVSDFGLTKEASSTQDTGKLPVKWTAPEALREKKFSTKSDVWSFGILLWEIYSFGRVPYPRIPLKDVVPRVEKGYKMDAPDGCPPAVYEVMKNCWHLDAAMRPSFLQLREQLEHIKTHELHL
Experiment [10] has as its target Casein kinase I isoform delta (Homo sapiens) (UniProt P48730). In words: Residual activity of CK1delta at 1 uM by microplate scintillation counting.
Experiment [11] addresses Epidermal growth factor receptor (Homo sapiens, UniProt P00533). The experiment in a line: Residual activity of wild type EGF-R at 0.1 uM by microplate scintillation counting.
The target of experiment [12] is T1, Tyrosine-protein kinase JAK3 (Homo sapiens). In words: Residual activity of JAK3 at 0.1 uM by microplate scintillation counting.
For experiment [13], the target named is Serine/threonine-protein kinase PAK 2 (Homo sapiens) (UniProt Q13177). In words: Residual activity of PAK2 at 1 uM by microplate scintillation counting.
Sequence of Serine/threonine-protein kinase PAK 2 (Homo sapiens) (Q13177 whole entry): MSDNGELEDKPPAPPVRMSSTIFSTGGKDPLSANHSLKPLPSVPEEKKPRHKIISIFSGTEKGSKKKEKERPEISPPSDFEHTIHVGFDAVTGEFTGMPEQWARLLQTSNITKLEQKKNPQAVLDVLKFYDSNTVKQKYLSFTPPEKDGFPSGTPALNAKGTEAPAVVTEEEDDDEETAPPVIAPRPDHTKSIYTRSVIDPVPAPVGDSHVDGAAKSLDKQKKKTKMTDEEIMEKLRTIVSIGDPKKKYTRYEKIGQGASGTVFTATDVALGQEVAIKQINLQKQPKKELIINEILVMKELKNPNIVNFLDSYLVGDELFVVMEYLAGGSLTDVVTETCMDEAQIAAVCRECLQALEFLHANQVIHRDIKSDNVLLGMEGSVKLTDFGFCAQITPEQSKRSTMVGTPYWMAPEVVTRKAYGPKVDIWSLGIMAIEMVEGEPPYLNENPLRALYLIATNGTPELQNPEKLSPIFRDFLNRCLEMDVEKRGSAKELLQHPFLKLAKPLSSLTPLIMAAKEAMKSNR

Sequence of Serine/threonine-protein kinase 24 (Homo sapiens) (Q9Y6E0 whole entry, looked up): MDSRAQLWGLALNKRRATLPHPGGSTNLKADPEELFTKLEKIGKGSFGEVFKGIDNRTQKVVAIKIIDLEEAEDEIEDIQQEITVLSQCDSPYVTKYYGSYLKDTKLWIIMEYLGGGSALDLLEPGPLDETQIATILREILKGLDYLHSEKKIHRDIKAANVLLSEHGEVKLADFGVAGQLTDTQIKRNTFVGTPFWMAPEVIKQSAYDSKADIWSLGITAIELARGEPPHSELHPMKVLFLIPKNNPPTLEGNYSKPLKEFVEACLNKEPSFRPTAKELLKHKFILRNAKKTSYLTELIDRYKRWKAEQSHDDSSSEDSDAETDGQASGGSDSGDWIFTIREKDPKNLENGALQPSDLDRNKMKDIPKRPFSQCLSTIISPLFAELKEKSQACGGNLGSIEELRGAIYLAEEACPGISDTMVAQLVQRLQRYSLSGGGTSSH
Sequence of Serine/threonine-protein kinase pim-1 (Homo sapiens) (P11309 whole entry, looked up, canonical isoform): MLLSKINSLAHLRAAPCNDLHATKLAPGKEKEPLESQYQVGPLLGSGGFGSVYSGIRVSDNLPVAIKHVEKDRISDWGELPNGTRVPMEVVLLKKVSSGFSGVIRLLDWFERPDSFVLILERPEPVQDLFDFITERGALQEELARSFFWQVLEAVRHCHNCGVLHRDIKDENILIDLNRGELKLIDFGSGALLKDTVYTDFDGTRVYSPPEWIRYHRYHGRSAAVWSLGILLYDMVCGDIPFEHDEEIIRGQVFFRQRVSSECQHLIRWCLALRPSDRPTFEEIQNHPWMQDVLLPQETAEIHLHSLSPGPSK

Take `COc1cc2c(Oc3ccc(-c4nc5ccccc5s4)cc3)ncnc2cc1OCCCN1CCN(C)CC1`: the residual activity came out at 231% in experiment [1]; 100% in experiment [2]; 156% in experiment [3]; 63% in experiment [4]; 58% in [5]; 254% in experiment [6]. Also, the residual activity is 90% in experiment [7]; 109% in experiment [8]; 82% in [9]; 96% in experiment [10]; 94% in [11]; 95% in experiment [12]. Moreover, the residual activity in experiment [13] stood at 124%.

Turning to `COc1cc2c(Oc3ccc(-c4nc5ccccc5s4)cc3)ncnc2cc1OCCCN1CCCC1`, the residual activity in experiment [1] was determined as 165%; in experiment [2], 95%; in experiment [3], 133%; in experiment [4] it was 68%; in experiment [5], 49%; in [6], 224%. The residual activity in [7] amounted to 94%; in experiment [8], 135%; in experiment [9] it was 97%; in experiment [10], 100%; in [11] it was 95%; in experiment [12], 98%. The residual activity in experiment [13] amounted to 102%.

In the case of `COc1cc2c(Oc3ccc(-c4nc5ccccc5s4)cc3F)ncnc2cc1OCCCN1CCN(C)CC1`, the residual activity in experiment [1] came to 229%; in [2], 76%; in experiment [3], 149%; in experiment [4], 53%; in [5], 65%; in [6] it was 239%. In addition, the residual activity in experiment [7] was determined as 84%; in [8] it was 116%; in experiment [9], 76%; in experiment [10] it was 102%; in experiment [11], 100%; in experiment [12], 90%. The residual activity in [13] is 103%.

What is called residual activity is the signal under treatment as a percentage of the control signal.

The values are drawn from ChEMBL document CHEMBL1152560, “Substituted 2-arylbenzothiazoles as kinase inhibitors: hit-to-lead optimization” (Bioorg Med Chem, 2009).
